The results in this text go back to patent US10300155B2, “Alpha-synuclein ligands” (Washington University, priority 2015, dated 2019).

In the test the target is T1, α-synuclein fibrils (Homo sapiens, UniProt P37840).
T1 construct: made in house; host or cells: E. coli BL21(DE3)RIL
Briefly: ThT competitive assay for α-synuclein fibrils (Table 1). The format is binding. Conditions: for EC50: α-synuclein fibrils. The protocol:
Upon binding to amyloid fibrils, a peak at approximately 440 nm becomes dominant with the fluorescent emission maximum shifted to 480 nm. This is accompanied by a strong enhancement of the fluorescence.
α-Synuclein recombinant protein was produced in E. coli. […] Freshly transformed BL21 colonies were inoculated into 2 L baffled flasks containing 250 mL sterilized TB (1.2% bactotryptone, 2.4% yeast extract, 0.4% glycerol, 0.17 M KH2PO4, 0.72 M K2HPO4) with 50 μg/ml ampicillin, and incubated overnight at 37° C. with shaking.
To determine the concentration of fibrils, the reaction mixture (100 μL) was centrifuged at 18,000×g for 10 minutes to separate fibrils from monomer. The α-synuclein monomer and other soluble proteins in the supernatant were removed, and the fibril pellet was resuspended in 100 μL solution of Tris-HCl (20 mM) and NaCl (100 mM). This fibril suspension was used in a bicinchoninic acid (BCA) protein assay along with a bovine serum albumin (BSA) standard curve to determine the concentration of fibrils in the 72 hour fibril reaction mixture.
To prepare the fibrils for performing binding assays, the fibril reaction mixture prepared above was centrifuged at 18,000×g for 10 minutes.
Once the ThT-α-synuclein saturation binding curve and dissociation constant (Kd) were determined the competitive assay for determining the binding affinity of various test compounds was conducted. […] The mixture was incubated at room temperature for 60 minutes on the shaking plate. The fluorescent intensity for each cell was measured by the fluorescence reader at λex and λem. The Ki value for each compound was calculated by the corresponding inhibition curve.
The Ki values were derived from the EC50 values using the Cheng-Prusoff equation: Ki=EC50/(1+[radioligand]/Kd). See FIGS. 17.1-31.2 for the inhibition curves for each compound in the ThioT competitive binding assay.

Where [1] appears, read: average, read-out: Ki (nM) α-syn (avg).
[2] abbreviates: individual determinations, read-out: Ki (nM) α-syn.
The mark [3] stands for this setting: average, read-out: EC50 (nM) EC50 (avg).
[4] abbreviates: individual determinations, read-out: EC50 (nM) EC50.

Several values for one entry are separate records, joined by “and”; a condition that tells them apart may be missing. Identical values can stand only once. Like-named read-outs stand apart in the source and are kept apart here.

Take `CN(C)c1ccc(/C=C/c2cnccn2)cc1` [TZ-22-35-1]: the inhibitory constant (Ki) – broadly, a measure of affinity in units of concentration, obtained from inhibition or displacement – came to 698 nM under setting [1] and 698 nM under setting [2].
Take `O=[N+]([O-])c1ccc2nc(/C=C/c3cnccn3)ccc2c1` [TZ-36-20]: the inhibitory constant (Ki) stood at 926 nM under setting [1] and 926 nM under setting [2]. Moreover, the concentration giving a half-maximal response (EC50) (as a rule, the midpoint of the concentration-response curve) was determined as 2420 nM under setting [3] and 2420 nM under setting [4].
Take `COc1ccc(/C=C/c2ccc(CO)s2)cc1` [TZ-34-46]: the Ki was 108 nM under setting [1]; 105 nM and 110 nM under setting [2]. Further, the EC50 is 281 nM under setting [3]; 275 nM and 287 nM under setting [4].
With `COc1ccc2c(c1)NC(=O)/C(=C/C=C/c1ccc([N+](=O)[O-])cc1)O2` [TZ-19-122], the Ki by setting is: under setting [1], 598 nM; under setting [2], 598 nM.
In the case of `O=[N+]([O-])c1ccc(/C=C/c2cccs2)cc1` [TZ-34-74], the inhibitory constant (Ki) is 55 nM under setting [1] and 55 nM under setting [2]. Further, the EC50 by setting is: under setting [3], 145 nM; under setting [4], 145 nM.
With `COc1ccc(/C=C/c2cccnn2)cc1` [TZ-22-23-1], the inhibition constant Ki came to 1140 nM under setting [1] and 1140 nM under setting [2].
On to `COc1ccc2c(c1)Oc1cc([N+](=O)[O-])ccc1N2C/C=C/c1ccc(N(C)C)cc1` [TZ-19-140], for which the inhibition constant Ki is, setting by setting: under setting [1], 467 nM; under setting [2], 467 nM.
For `COc1cccc2nc(/C=C/c3ccncc3)ccc12` [TZ-23-06], the inhibitory constant (Ki) reads like this: under setting [1], 96.3 nM; under setting [2], 96.3 nM.
`COc1ccc(/C=C/c2cnccn2)cc1OC` [TZ-22-37-1]: the Ki is, setting by setting: under setting [1], 213 nM; under setting [2], 213 nM.
For the molecule `Fc1ccc(/C=C/c2cccs2)cc1` [TZ-34-60], the Ki was found to be 1000 nM under setting [1] and 1000 nM under setting [2]. Further, the EC50 reads like this: under setting [3], 1000 nM; under setting [4], 1000 nM.
In the case of `COc1ccc2nc(/C=C/c3ccccc3)ccc2c1` [TZ-19-144], the inhibitory constant (Ki) under setting [1] is 196 nM and the Ki under setting [2] amounted to 196 nM.
`COc1ccc2ccc(/C=C/c3cnccn3)nc2c1` [TZ-23-16]: the inhibition constant Ki reads like this: under setting [1], 3180 nM; under setting [2], 3180 nM.
As for `COC(=O)c1ccc(/C=C/c2ccncc2)cc1` [TZ-20-35], the Ki runs as follows: under setting [1], 16.1 nM; under setting [2], 16.1 nM.
On to `COc1ccc2nc(/C=C/c3ccnc(F)c3)ccc2c1` [TZ-36-26-2T], for which, under setting [1], the inhibitory constant (Ki) amounted to 434 nM. Besides, the EC50 under setting [3] is 1140 nM.
For the molecule `COc1cccc2nc(/C=C/c3ccccc3)ccc12` [TZ-19-152], the Ki came to 532 nM under setting [1] and 532 nM under setting [2].
Consider `O=C(Nc1ccc(I)cc1)c1ccc(/C=C/c2ccncc2)cc1` [TZ-23-56], for which the Ki by setting is: under setting [1], 19.8 nM; under setting [2], 19.8 nM.
Regarding `Fc1ccc(/C=C/c2ccsc2)cc1` [TZ-34-59], the Ki turned out to be 860 nM under setting [1] and 860 nM under setting [2]. For the same molecule, the EC50 reads like this: under setting [3], 2250 nM; under setting [4], 2250 nM.
Consider `O=[N+]([O-])c1ccc(/C=C/c2ccncc2)cc1` [TZ-20-59], for which the Ki reads like this: under setting [1], 52.8 nM; under setting [2], 52.8 nM.
Take `COc1ccc(/C=C/c2cc3ccccc3s2)cc1` [TZ-34-87]: the Ki under setting [1] stood at 884 nM and the inhibition constant Ki under setting [2] is 884 nM. The EC50 runs as follows: under setting [3], 2310 nM; under setting [4], 2310 nM.
For the molecule `COc1ccc(/C=C/c2ncccn2)cc1` [TZ-22-31-1], the inhibition constant (Ki) under setting [1] is 2770 nM and the Ki under setting [2] turned out to be 2770 nM.
Turning to `COc1ccc(/C=C/c2ccc(C=O)s2)cc1` [TZ-34-41], the inhibitory constant (Ki) runs as follows: under setting [1], 148 nM; under setting [2], 148 nM. Also, the 50% effective concentration (EC50) by setting is: under setting [3], 387 nM; under setting [4], 387 nM.
For the molecule `C(=C\c1cccs1)/c1ccncc1` [TZ-34-100], the inhibition constant (Ki) by setting is: under setting [1], 604 nM; under setting [2], 604 nM. Moreover, the EC50 amounted to 1580 nM under setting [3] and 1580 nM under setting [4].
In the case of `Brc1ccc2nc(/C=C/c3cnccn3)ccc2c1` [TZ-36-24], the inhibitory constant (Ki) stood at 453 nM under setting [1] and 453 nM under setting [2]. Also, the half-maximal effective concentration (EC50) came to 1190 nM under setting [3] and 1190 nM under setting [4].
`COc1ccc2nc(/C=C/c3cccnc3Cl)ccc2c1` [TZ-36-40]: the inhibitory constant (Ki) is, setting by setting: under setting [1], 62 nM; under setting [2], 62 nM. Besides, the concentration for a half-maximal effect (EC50) under setting [3] was 163 nM and the EC50 under setting [4] amounted to 163 nM.
As for `COC(=O)c1ccc2oc(-c3ccc(-c4ccc(F)nc4)c(C(F)(F)F)c3)nc2c1` [TZ-31-125], the inhibition constant Ki runs as follows: under setting [1], 1560 nM; under setting [2], 1560 nM. Moreover, the EC50 under setting [3] was determined as 4090 nM and the half-maximal effective concentration (EC50) under setting [4] stood at 4090 nM.
In the case of `COc1ccc(/C=C/c2cc(Br)cs2)cc1` [TZ-34-39], the Ki reads like this: under setting [1], 256 nM; under setting [2], 233 nM and 278 nM. The EC50 under setting [3] worked out at 668 nM; the half-maximal effective concentration (EC50) under setting [4] was 609 nM and 727 nM.
In the case of `COc1ccc2ccc(/C=C/c3ccncc3)nc2c1` [TZ-23-02], the Ki turned out to be 71.8 nM under setting [1] and 71.8 nM under setting [2].
`OCc1ccc2oc(-c3ccc(-c4ccc(F)nc4)c(C(F)(F)F)c3)nc2c1` [TZ-31-123]: the inhibitory constant (Ki) came out at 31400 nM under setting [1] and 31400 nM under setting [2]. In addition, the EC50 turned out to be 82000 nM under setting [3] and 82000 nM under setting [4].
`COc1ccc2nc(/C=C/c3ccc(Cl)nc3)ccc2c1` [TZ-36-38]: the Ki is 39 nM under setting [1]; 31 nM and 47 nM under setting [2]. Besides, the concentration for a half-maximal effect (EC50) is 101 nM under setting [3]; 80 nM and 122 nM under setting [4].
As for `Ic1ccc(/C=C/c2ccsc2)cc1` [TZ-34-64], the Ki under setting [1] was found to be 115 nM and the Ki under setting [2] was 115 nM. Also, the EC50 under setting [3] stood at 300 nM and the half-maximal effective concentration (EC50) under setting [4] amounted to 300 nM.
